How the values were obtained:
Format in all cases: cell-based
[1] = test system: human lung fibroblasts (HLF); test: Fibroblast to myofibroblast transdifferentiation (FMT), αSMA immunofluorescence, TGFβ-driven; details: 48 h, TGFβ 0.3 ng/mL
Method: To assess the differentiation of fibroblasts to the myofibroblast phenotype, immunofluorescence was used to monitor increases in α smooth muscle actin (αSMA). HLF were seeded overnight at 1000 cells/well in 384-well black clear bottom plates, before being starved for 24 h growth medium devoid of FBS.
For anti-remodelling assays using FMT, cells were incubated for 48 h with a range of concentrations of test compounds and incubated for 48 h, at 37°C, 5% CO2 in the presence of a near maximal concentration of TGFβ (0.3 ng/mL), to promote differentiation in DMEM supplemented with 0.1% w/v HSA. Following stimulation, cells were fixed in 4% paraformaldehyde, washed 3× in PBS (with Ca^2+/Mg^2+), and incubated with permeabilising blocking buffer (dPBS (with Ca^2+/Mg^2+), 10% FBS (v/v), 0.1% Triton X-100 (v/v)) for 1 h at 37°C. Wells were then washed 3× in wash buffer (Tris Buffered Saline (TBS), 0.05% (v/v) Tween-20) and incubated with mouse anti-α SMA (1:1000 dilution in permeabilising blocking buffer) for 1 h at room temperature, with gentle shaking. Following 3× wash in wash buffer, wells were incubated with blocking buffer containing Hoechst to stain for nuclear DNA (2 μM), and FITC-conjugated Affini-pure goat […] IgG (1:1000 dilution in blocking buffer) for 30 min at 37°C. Fluorescence was then quantified on a widefield ImageXpress Micro microscope, with a Plan Fluor 20X objective, DAPI filter cube (excitation 400–418 nm, emission 435–470 nm), 50 ms exposure time for nuclei, and FITC filter cube (excitation 467–498 nm, emission 513–556 nm), 200 ms exposure time for αSMA.
To quantify increases in αSMA fluorescence, a standard Multi-Wavelength Cell Scoring algorithm was used in MetaXpress 5.3 software (Molecular Devices, California, USA). To account for the inter-assay variation in levels of αSMA expression produced in each experiment, data were normalized to the response to TGFβ.

[2] = test system: human lung fibroblasts (HLF); test: Cell viability assay, caspase-3/7 as marker of apoptosis; details: 24 h
Method: Cell viability was measured using caspase-3/7 expression as a marker of apoptosis after treatment for 24 h with test compounds. HLF were seeded overnight at 6,000 cells/well in 96-well black ViewPlates, before being starved for 24 hours in culture medium devoid of FBS. Cells were incubated for 24 hours in the presence of test compounds at the top concentrations used in the proliferation assays, or in the presence of 100 nM staurosporine to induce apoptosis.
The presence of the apoptotic marker caspase-3/7 was detected by incubating cells with 8 μM CellEvent™ Caspase-3/7 Red Detection Reagent in dPBS with 5 % FBS, for 30 minutes at 37°C. […] Images were analyzed using a multi wavelength cell scoring algorithm within the MetaXpress 5.3 software, which measures cell number using stained nuclei, and percent of these cells positive for caspase-3/7 from Cy5 readouts. To account for the inter-assay variation in levels of caspase 3/7 detected in each experiment, data were normalized to the staurosporine response.
Statistical significance across treatment groups was determined by using the one-way ANOVA with Dunnett’s multiple-comparison post hoc test.

[3] = test system: human lung fibroblasts (HLF); test: HLF proliferation by BrdU incorporation (DELFIA), driven by FBS or PDGF; details: 24 h; for inhibition of FBS- and PDGF-driven proliferation (in words): either stimulus; for maximal level of inhibition of PDGF-driven proliferation: near maximal PDGF; for Proliferation vs PDGF Emax (% max) / Proliferation vs PDGF pEC50 / Proliferation vs serum pEC50 / Proliferation vs serum Emax (% max) / Emax / EC50: inhibition of BrdU incorporation, NC = not calculated due to incomplete curve; for Proliferation vs PDGF pEC50 / Proliferation vs serum pEC50 / EC50: mean ± SEM; for Emax / EC50: Homo sapiens, Fibroblast
Method: Proliferation of HLF was measured by incorporation of bromodeoxyuridine (BrdU). HLF were seeded overnight at 4000 cells/well in 96-well black ViewPlates, before being starved for 24 h in culture medium devoid of FBS. Proliferation was measured after incubation with a range of concentrations of FBS or PDGF, in DMEM supplemented with 0.1% w/v HSA, for 24 h.
For anti-remodelling assays using BrdU incorporation, cells were incubated for 24 h with a range of concentrations of test compounds in the presence of near maximal concentrations of FBS or PDGF in DMEM supplemented with 0.1% w/v HSA. Proliferation was assessed using the DELFIA BrdU incorporation assay kit following manufacturer protocol. Fluorescence was measured using a Packard EnVision plate reader. To account for the inter-assay variation in levels of proliferation in each experiment, data were normalized to the PDGF or FBS response.

[4] = test system: human lung fibroblasts (HLF); test: cAMP accumulation in HLF (HitHunter or AlphaScreen); details: HLF; for cAMP pEC50 / cAMP Emax (% max) / EC50 / Emax: 2 h, mean ± SEM, NC = not calculated due to incomplete curve; for cAMP pEC50 / EC50: room temperature, 5 μM rolipram (excluded for PDE inhibitors), at least 3 experiments; for cAMP Emax (% max) / Emax: percentage of the maximal forskolin response; for EC50 / Emax: Homo sapiens, Fibroblast; for EC50: read-out: cAMP pEC50 (converted); for Emax: read-out: cAMP Emax (% max)
Method: HLF were grown to confluency in 96-well white ViewPlates, before incubation with a range of agonist concentrations, or vehicle, for 2 h at room temperature in HBSS with 5 mM HEPES, 0.1% w/v HSA, and 5 μM rolipram. […] Rolipram was excluded when measuring cAMP levels in response to PDE inhibitors. cAMP levels were measured using either HitHunter cAMP assay or AlphaScreen competition assay following manufacturer protocol, and were assessed on either a BMG LABTEK ClarioStar or a Packard EnVision plate reader. cAMP concentrations in each well were determined using a standard curve. To account for the inter-assay variation in levels of cAMP produced in each experiment, data were normalized to the maximal forskolin response.

[5] = test system: human lung fibroblasts (HLF); test: HLF proliferation by nuclei count
Method: Proliferation of HLF was measured by nuclei count. Human lung fibroblasts (HLF) were seeded overnight at 4,000 cells/well in 96-well black ViewPlates, before being starved for 24 h in culture medium devoid of FBS. Proliferation was measured after incubation with a range of concentrations of FBS or PDGF, in DMEM supplemented with 0.1 % w/v HSA, for 24, 48, 72, or 96 h for nuclei count assay.
For anti-remodelling assays, cells were incubated for 48 h with a range of concentrations of test compounds in the presence of an EC80 concentration of FBS (1.8 % v/v). Following stimulation, cells were fixed with 4 % PFA and nuclei stained with Hoechst 33342 (1 μM) for 15 minutes at room temperature. Cells were then washed three times with dPBS before the plate was read using the widefield ImageXpress Micro microscope, with a Plan Fluor 4X objective, DAPI filter cube (excitation 400-418nm, emission 435-470nm), and 50 ms exposure time. Images were analysed using a nuclear count algorithm within the MetaXpress 5.3 software (Molecular Devices, California, USA). To account for the inter-assay variation in levels of proliferation in each experiment, data were normalized to the EC80 FBS response.

[6] = HLF, 1:10 dilution of top conc 30 μM
[7] = EC80 PDGF, percentage of maximal proliferation observed with PDGF
[8] = EC80 serum, percentage of maximal proliferation observed with serum
[9] = EC80 PDGF, percentage of maximal proliferation observed with PDGF, read-out: Proliferation vs PDGF Emax (% max)
[10] = EC80 concentration of PDGF, read-out: Proliferation vs PDGF pEC50 (converted)

Molecule: N#Cc1c(N)nc(SCC(N)=O)c(C#N)c1-c1ccc(OCC2CC2)cc1 [BAY60–6583]
- inhibition of TGFβ-driven FMT (in words) [1]: completely inhibit FMT
- % cells positive for caspase-3/7, 1:10 dilution [2, 6]: 1.04 ± 0.38%
- % cells positive for caspase-3/7, Top conc ([2]; HLF, top conc 30 μM): 0.62 ± 0.14%
- inhibition of FBS- and PDGF-driven proliferation (in words) ([3]; BrdU): fully inhibit both FBS- and PDGF-driven proliferation
- maximal level of inhibition of serum-driven proliferation ([3]; BrdU, near maximal FBS): 100%
- maximal level of inhibition of PDGF-driven proliferation ([3]; BrdU): 100%
- Proliferation vs PDGF Emax (% max) [3, 7]: 100 ± 0.01 % max
- Proliferation vs PDGF pEC50 ([3]; EC80 concentration of PDGF): 5.30 ± 0.12
- Proliferation vs serum pEC50 ([3]; EC80 concentration of serum): 5.30 ± 0.16
- Proliferation vs serum Emax (% max) [3, 8]: 100 ± 0.01 % max
- cAMP pEC50 [4]: 6.57 ± 0.06
- cAMP Emax (% max) [4]: 10.2 ± 2.89 % max

Molecule: NCCc1ccc(O)c(O)c1 [Dopamine]
- inhibition of TGFβ-driven FMT (in words) [1]: full concentration-response curves could not be established
- % cells positive for caspase-3/7, 1:10 dilution ([2]; human, 3 μM): 1.21 ± 0.34%
- % cells positive for caspase-3/7, Top conc ([2]; human, 30 μM): 0.83 ± 0.14%
- Emax [3, 9]: 73.5 ± 13.5%
- EC50 [3, 10]: 16600 nM
- EC50 [4]: 4070 nM
- Emax [4]: 41.2 ± 10%

Molecule: CCNC(=O)[C@H]1O[C@@H](n2cnc3c(N)ncnc32)[C@H](O)[C@@H]1O [NECA]
- inhibition of TGFβ-driven FMT (in words) [1]: full concentration-response curves could not be established
- % cells positive for caspase-3/7, 1:10 dilution [2, 6]: 0.67 ± 0.09%
- % cells positive for caspase-3/7, Top conc ([2]; HLF, top conc 30 μM): 1.04 ± 0.20%
- maximal level of inhibition of PDGF-driven proliferation ([3]; BrdU): 38%
- Proliferation vs PDGF Emax (% max) [3, 7]: 37.8 ± 14.7 % max
- Proliferation vs PDGF pEC50 ([3]; EC80 concentration of PDGF): 6.94 ± 0.43
- cAMP pEC50 [4]: 5.39 ± 0.13
- cAMP Emax (% max) [4]: 47.3 ± 3.40 % max

Molecule: OCc1cc(C(O)CNCCCCCCOCCCCc2ccccc2)ccc1O (stereo not shown) [Salmeterol]
- maximal level of inhibition of FMT [1]: 51 % of the TGFβ response
- % cells positive for caspase-3/7, 1:10 dilution ([2]; human, 10 nM): 0.66 ± 0.24%
- % cells positive for caspase-3/7, Top conc ([2]; human, 100 nM): 0.40 ± 0.12%
- Emax [3, 9]: 89.2 ± 0.27%
- EC50 [3, 10]: 0.0316 nM
- EC50 ([3]; EC80 concentration of serum, read-out: Proliferation vs serum pEC50 (converted)): 0.263 nM
- Emax ([3]; EC80 serum, percentage of maximal proliferation observed with serum, read-out: Proliferation vs serum Emax (% max)): 37.7 ± 7.33%
- EC50 [4]: 0.123 nM
- Emax [4]: 45.8 ± 3.53%

Molecule: AGN-205204
- maximal level of inhibition of FMT [1]: 71 % of the TGFβ response
- % cells positive for caspase-3/7, 1:10 dilution ([2]; HLF, 1:10 dilution of top conc 10 μM): 0.56 ± 0.09%
- % cells positive for caspase-3/7, Top conc ([2]; HLF, top conc 10 μM, mean ± SEM, n=3): 0.57 ± 0.09%
- Proliferation vs PDGF Emax (% max) [3, 7]: 101 ± 3.71 % max
- Proliferation vs PDGF pEC50 ([3]; EC80 concentration of PDGF): 7.45 ± 0.25
- Proliferation vs serum pEC50 ([3]; EC80 concentration of serum): 6.91 ± 0.48
- Proliferation vs serum Emax (% max) [3, 8]: 51.3 ± 8.89 % max
- cAMP pEC50 [4]: 6.62 ± 0.12
- cAMP Emax (% max) [4]: 49.7 ± 3.84 % max

Molecule: Alpha melanocortin stimulating hormone (Ac-SYSMEHFRWGKPV-NH2; ends and bridges not checked; UniProt P01189 138-150, looked up) [α-MSH, MC1, MC3, MC4, MC5 agonist]
- inhibition of TGFβ-driven FMT (in words) [1]: full concentration-response curves could not be established
- inhibition of FBS- and PDGF-driven proliferation (in words) ([3]; BrdU): incapable of inhibiting the proliferation mediated by either stimulus
- cAMP response (in words) ([4]; acute cAMP accumulation): no detectable cAMP response

Molecule: Platelet-derived growth factor [PDGF]
- EC50 for stimulation of proliferation (nuclei count) ([5]; 72 h treatment): 3.77 ± 0.13 ng/mL
- EC50 for stimulation of proliferation (nuclei count) ([5]; 96 h treatment): 7.26 ± 3.23 ng/mL
- maximal proliferation (nuclei count) ([5]; 96 h treatment): 29.2 ± 15.2 % of the maximal serum response
- maximal proliferation (BrdU incorporation) ([3]; normalized to maximal proliferation observed with 10% serum): 41.0 ± 8.62%

Source: PMC5889558, “The inhibition of human lung fibroblast proliferation and differentiation by Gs-coupled receptors is not predicted by the magnitude of cAMP response” (Respiratory Research, 2018)
